Data taken from PubChem BioAssay (NCI).
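Results reflect a 48-hour exposure of cells in 96-well plates to compound at five concentrations. The concentration for 50% growth inhibition is given as GI50. Definition used: TGI = concentration required for complete inhibition of growth.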

Experiments:
Assay in all cases: NCI tumour cell line growth inhibition, 48 h
[1] = test system: M14 melanoma
[2] = test system: T-47D breast
[3] = test system: NCI-H23 lung
[4] = test system: HL-60(TB) leukemia
[5] = test system: HOP-92 NSCLC
[6] = test system: SK-MEL-5 melanoma
[7] = test system: MALME-3M melanoma
[8] = test system: RPMI-8226 leukemia
[9] = test system: EKVX NSCLC
[10] = test system: U251 CNS
[11] = test system: 786-0 renal
[12] = test system: NCI-H226 lung
[13] = test system: HCT-116 colon
[14] = test system: A549 NSCLC
[15] = test system: HS 578T breast
[16] = test system: SNB-19 CNS
[17] = test system: A498 renal
[18] = test system: NCI-H460 lung
[19] = test system: OVCAR-5 ovarian
[20] = test system: SN12C renal
[21] = test system: UACC-257 melanoma
[22] = test system: OVCAR-4 ovarian
[23] = test system: SK-MEL-28 melanoma
[24] = test system: DU-145 prostate
[25] = test system: UACC-62 melanoma
[26] = test system: OVCAR-8 ovarian
[27] = test system: MOLT-4 leukemia
[28] = test system: SW-620 colon
[29] = test system: LOX IMVI melanoma

In the case of `COc1cc(C#Cc2ccc(=O)oc2C#Cc2ccccc2)cc(OC)c1OC`, the TGI [1] is reported as 5.98 µM, the GI50 [2] is reported as 2.27 µM and the TGI [2] is reported as 6.22 µM. It also gave a GI50 [3] of 2.59 µM, a TGI [3] of 7.63 µM and a GI50 [4] of 4.62 µM. It also gave a TGI [4] of 40.1 µM, a GI50 [5] of 5.13 µM and a TGI [5] of 12.4 µM. It also gave a GI50 [6] of 2.02 µM, a TGI [6] of 4.77 µM and a GI50 [7] of 2.99 µM. The TGI [7] was 7.21 µM, the GI50 [8] was 2.33 µM and the TGI [8] was 17.7 µM. It also gave a GI50 [9] of 5.32 µM, a TGI [9] of 13.4 µM and a GI50 [10] of 1.9 µM. For the same compound, the TGI [10] was 3.6 µM, the GI50 [11] was 3.39 µM and the TGI [11] was 12.2 µM. The GI50 [12] was 2.59 µM, the TGI [12] was 7.41 µM and the GI50 [13] was 2.04 µM. For the same compound, the TGI [13] was 4.57 µM, the GI50 [14] was 10.3 µM and the TGI [14] was 43.9 µM. For the same compound, the GI50 [15] was 5.83 µM, the TGI [15] was 43.9 µM and the GI50 [16] was 8.91 µM. For the same compound, the TGI [16] was 34.3 µM, the GI50 [17] was 19.1 µM and the TGI [17] was 34.5 µM. It also gave a GI50 [18] of 3.94 µM, a TGI [18] of 16.4 µM and a GI50 [19] of 5.74 µM. The TGI [19] was 12.1 µM, the GI50 [20] was 1.75 µM and the TGI [20] was 3.5 µM. The GI50 [21] was 6.81 µM, the TGI [21] was 15.6 µM and the GI50 [22] was 4.97 µM. The TGI [22] was 68.6 µM, the GI50 [23] was 2.64 µM and the TGI [23] was 7.22 µM. For the same compound, the GI50 [24] was 3.12 µM, the TGI [24] was 10.7 µM and the GI50 [25] was 3.89 µM. For the same compound, the TGI [25] was 9.18 µM, the GI50 [26] was 2.93 µM and the TGI [26] was 10.3 µM. The GI50 [27] was 3.43 µM, the TGI [27] was greater than 45.1 µM and the GI50 [28] was 2.04 µM. It also gave a TGI [28] of 4.28 µM, a GI50 [29] of 1.1 µM and a TGI [29] of 2.6 µM.
